Test system: human hepatoma Huh-7 cell line harboring a HCV replicon
Test: HCV replicon assay (inhibition of viral replication, luciferase)
Format: cell-based
Conditions: Hepatitis C virus, 72 h; 2 μM; Huh-7 HCV replicon cells, 3 days incubation; inhibition of viral replication; read-out: % inhibition at 2 μM
Procedure: The anti-HCV activity of the compounds of this invention was tested in a human hepatoma Huh-7 cell line harboring a HCV replicon. The assay comprised the following steps:
Step 1: Compound Preparation and Serial Dilution.
Serial dilution was performed in 100% DMSO in a 384-well plate. A solution containing a compound at 225-fold concentration of the starting final serial dilution concentration was prepared in 100% DMSO and 15 uL added to the pre-specified wells in column 3 or 13 of a polypropylene 384-well plate. The rest of the 384-well plate was filled with 10 uL 100% DMSO except for columns 23 and 24, where 10 uL of 500 uM a HCV protease inhibitor (ITMN-191) in 100% DMSO was added. The HCV protease inhibitor was used a control of 100% inhibition of HCV replication. The plate was then placed on a Biomek FX Workstation to start the serial dilution. The serial dilution was performed for ten cycles of 3-fold dilution from column 3 to 12 or from column 13 to 22.
Step 2: Cell Culture Plate Preparation and Compound Addition
To each well of a black polypropylene 384-well plate, 90 μL of cell media containing 1600 suspended Huh-7 HCV replicon cells was added with a Biotek uFlow Workstation. A volume of 0.4 μL of the compound solution was transferred from the serial dilution plate to the cell culture plate on a Biomek FX Workstation. The DMSO concentration in the final assay condition was 0.44%. The plates were incubated for 3 days at 37° C. with 5% CO2 and 85% humidity.
Step 3: Detection of Cytotoxicity and Inhibition of Viral Replication
a) Assessment of cytotoxicity: The media in the 384-well cell culture plate was aspirated with a Biotek EL405 plate-washer. A volume of 50 μL of a solution containing 400 nM Calcein AM in 100% PBS was added to each well of the plate with a Biotek uFlow Workstation. The plate was incubated for 30 minutes at room temperature before the fluorescence signal ([…]) was measured with a Perkin Elmer Envision Plate Reader.
b) Assessment of inhibition of viral replication: The calcein-PBS solution in the 384-well cell culture plate was aspirated with a Biotek EL405 plate-washer. A volume of 20 μL of Dual-Glo luciferase buffer (Promega, Dual-Glo Luciferase Assay Reagent, cat. #E298B) was added to each well of the plate with a Biotek uFlow Workstation. The plate was incubated for 10 minutes at room temperature. A volume of 20 μL of a solution containing 1:100 mixture of Dual-Glo Stop & Glo substrate(Promega, Dual-Glo Luciferase Assay Reagent, cat. #E313B) and Dual-Glo Stop & Glo buffer (Promega, Dual-Glo Luciferase Assay Reagent, cat. #E314B) was then added to each well of the plate with a Biotek uFlow Workstation. The plate was incubated at room temperature for 10 minutes before the luminescence signal was measured with a Perkin Elmer Envision Plate Reader.
The percent cytotoxicity was determined by calcein AM conversion to fluorescent product. The average fluorescent signal from the DMSO control wells were defined as 100% nontoxic. The individual fluorescent signal from testing compound treated well was divided by the average signal from DMSO control wells and then multiplied by 100% to get the percent viability. The percent anti-HCV replication activity was determined by the luminescence signal from the testing well compared to DMSO controls wells. The background signal was determined by the average luminescence signal from the HCV protease inhibitor treated wells and was subtracted from the signal from the testing wells as well as the DMSO control wells. Following 3-fold serial dilutions, the EC50 and CC50 values were calculated by fitting % inhibition at each concentration to the following equation: % inhibition=100%[(EC50/[l])^b+1]
Where b is Hill's coefficient. See, for reference, Hill, A. V., The Possible Effects of the Aggregation of the Molecules of Hæmoglobin on its Dissociation Curves, J. Physiol. 40: iv-vii. (1910). […]

Structure (SMILES) | inhibition at 2 µM [%]
CC(C)(C)C#Cc1cc(N(C(=O)[C@H]2CC[C@H](C)CC2)[C@H]2CCN(C(=O)O[C@@H]3CCCNC3)C2)c(C(=O)O)s1 [Compound 38, 3-(S)-[[2-carboxy-5-(3,3-dimethyl-but-1-ynyl)-thiophen-3-yl]-(4-trans-methyl-cyclohexanecarbonyl)-amino]-pyrrolidine-1-carboxylic acid piperidin-3-(R)-yl ester] | 99.6
CC(C)(C)C#Cc1cc(N(C(=O)[C@H]2CC[C@H](C)CC2)C2CCN(C(=O)OC3CCNCC3)CC2)c(C(=O)O)s1 [Compound 31, 4-[[2-carboxy-5-(3,3-dimethyl-but-1-ynyl)-thiophen-3-yl]-(4-trans-methyl-cyclohexanecarbonyl)-amino]-piperidine-1-carboxylic acid piperidin-4-yl ester] | 93.1
CC(C)(C)C#Cc1cc(N(C(=O)[C@H]2CC[C@H](C)CC2)C2CCN(C(=O)OC3(C)CN(C(=O)OC(C)(C)C)C3)CC2)c(C(=O)O)s1 [Compound 73, 4-[[2-carboxy-5-(3,3-dimethyl-but-1-ynyl)-thiophen-3-yl]-(trans-4-methyl-cyclohexanecarbonyl)-amino]-piperidine-1-carboxylic acid 1-tert-butoxycarbonyl-3-methyl-azetidin-3-yl ester] | 93.1
CC1CCC(C(=O)N(c2cc(C#CC(C)(C)C)sc2C(=O)O)N(C)CCOc2ccccn2)CC1 (centres unmarked) [Compound 132, 5-(3,3-dimethyl-but-1-ynyl)-3-{N′-methyl-N-(4-methyl-cyclohexanecarbonyl)-N′-[2-(pyridin-2-yloxy)-ethyl]-hydrazino}-thiophene-2-carboxylic acid] | 77.4
CC1CCC(C(=O)N(c2cc(C#CC(C)(C)C)sc2C(=O)O)C2CCC(=NOCc3ccc(S(C)(=O)=O)cc3)CC2)CC1 (centres unmarked) [Compound 121, 3-(N-(4-(4-(Methylsulfonyl)benzyloxyimino)cyclohexyl)-4-methylcyclohexanecarboxamido)-5-(3,3-dimethylbut-1-ynyl)thiophene-2-carboxylic acid] | 99.9
CC(C)(C)C#Cc1cc(N(C(=O)[C@H]2CC[C@H](C)CC2)C2CCC(NC(=O)O[C@@H]3CCOC3)CC2)c(C(=O)O)s1 (stereo partly drawn) [Compound 48, 5-(3,3-dimethyl-but-1-ynyl)-3-{(4-trans-methyl-cyclohexanecarbonyl)-[4-(tetrahydro-furan-3-(R)-yloxycarbonylamino)-cyclohexyl]-amino}-thiophene-2-carboxylic acid] | 100
CC1CCC(C(=O)N(c2cc(C#CC(C)(C)C)sc2C(=O)O)C2CCC(NC(=O)OC3CN(C(=O)OC(C)(C)C)C3)CC2)CC1 (centres unmarked) [Compound 186, 3-{4-[[2-carboxy-5-(3,3-dimethyl-but-1-ynyl)-thiophen-3-yl]-(4-methyl-cyclohexanecarbonyl)-amino]-cyclohexylcarbamoyloxy}-azetidine-1-carboxylic acid tert-butyl ester] | 98.9
CC(C)(C)C#Cc1cc(N(C(=O)[C@H]2CC[C@H](C)CC2)C2CCN(C(=O)O[C@H]3CNC(=O)C3)CC2)c(C(=O)O)s1 [Compound 55, 4-[[2-carboxy-5-(3,3-dimethyl-but-1-ynyl)-thiophen-3-yl]-(4-trans-methyl-cyclohexanecarbonyl)-amino]-piperidine-1-carboxylic acid 5-oxo-pyrrolidin-3-(R)-yl ester] | 87.9
CC(C)(C)C#Cc1cc(N(C(=O)[C@H]2CC[C@H](C)CC2)C2CCN(C(=O)O[C@@H]3CCCNC3)CC2)c(C(=O)O)s1 [Compound 52, 4-[[2-carboxy-5-(3,3-dimethyl-but-1-ynyl)-thiophen-3-yl]-(4-trans-methyl-cyclohexanecarbonyl)-amino]-piperidine-1-carboxylic acid piperidin-3-(R)-yl ester] | 93.5
CC(C)(C)C#Cc1cc(N(C(=O)[C@H]2CC[C@H](C)CC2)[C@H]2CCN(C(=O)O[C@@H]3CNC(=O)C3)C2)c(C(=O)O)s1 [Compound 33, 3-(S)-[[2-carboxy-5-(3,3-dimethyl-but-1-ynyl)-thiophen-3-yl]-(4-trans-methyl-cyclohexanecarbonyl)-amino]-pyrrolidine-1-carboxylic acid 5-oxo-pyrrolidin-3-(S)-yl ester] | 96.2
CC(C)(C)C#Cc1cc(N(C(=O)[C@H]2CC[C@H](C)CC2)[C@H]2CCN(C(=O)O[C@H]3CNC(=O)C3)C2)c(C(=O)O)s1 [Compound 34, 3-(S)-[[2-carboxy-5-(3,3-dimethyl-but-1-ynyl)-thiophen-3-yl]-(4-trans-methyl-cyclohexanecarbonyl)-amino]-pyrrolidine-1-carboxylic acid 5-oxo-pyrrolidin-3-(R)-yl ester] | 97.8
CC1CCC(C(=O)N(NCCOc2cccnc2)c2cc(C#CC(C)(C)C)sc2C(=O)O)CC1 (centres unmarked) [Compound 133, 5-(3,3-dimethyl-but-1-ynyl)-3-{N-(4-methyl-cyclohexanecarbonyl)-N′-[2-(pyridin-3-yloxy)-ethyl]-hydrazino}-thiophene-2-carboxylic acid] | 96.7
CC1CCC(C(=O)N(c2cc(C#CC(C)(C)C)sc2C(=O)O)C2CCC(NN(C)c3ccc(Cl)nn3)CC2)CC1 (centres unmarked) [Compound 83, 3-[{4-[N′-(6-Chloro-pyridazin-3-yl)-N′-methyl-hydrazino]-cyclohexyl}-(4-methyl-cyclohexanecarbonyl)-amino]-5-(3,3-dimethyl-but-1-ynyl)-thiophene-2-carboxylic acid] | 99.9
CC(C)(C)C#Cc1cc(N(C(=O)[C@H]2CC[C@H](C)CC2)C2CCC(=NOCc3ccccc3)CC2)c(C(=O)O)s1 (some centres unmarked) [Compound 113] | 98.1
CC1CCC(C(=O)N(c2cc(C#CC(C)(C)C)sc2C(=O)O)C2CCC(NN(C)c3ccccn3)CC2)CC1 (centres unmarked) [Compound 79, 5-(3,3-Dimethyl-but-1-ynyl)-3-{(4-methyl-cyclohexanecarbonyl)-[4-(N′-methyl-N′-pyridin-2-yl-hydrazino)-cyclohexyl]-amino}-thiophene-2-carboxylic acid] | 100
CC(C)(C)C#Cc1cc(N(C(=O)[C@H]2CC[C@H](C)CC2)C2CCC(NC(=O)OC3(C)CCN(C(=O)OC(C)(C)C)C3)CC2)c(C(=O)O)s1 (some centres unmarked) [Compound 75] | 97.5
CC1CCC(C(=O)N(c2cc(C#CC(C)(C)C)sc2C(=O)O)C2CCN(C(=O)c3cccnc3)CC2)CC1 (centres unmarked) [Compound 140, 5-(3,3-dimethyl-but-1-ynyl)-3-{(4-methyl-cyclohexanecarbonyl)-[1-(pyridine-3-carbonyl)-piperidin-4-yl]-amino}-thiophene-2-carboxylic acid] | 99.9
CC(C)(C)C#Cc1cc(N(C(=O)[C@H]2CC[C@H](C)CC2)C2CCC(=NOc3ccccc3)CC2)c(C(=O)O)s1 (some centres unmarked) [Compound 119, 5-(3,3-Dimethylbut-1-ynyl)-3-(4-methyl-N-(4-(phenoxyimino)cyclohexyl)cyclohexanecarboxamido)thiophene-2-carboxylic acid] | 97.1
CC1CCC(C(=O)N(c2cc(C#CC(C)(C)C)sc2C(=O)O)N(C)C)CC1 (centres unmarked) [Compound 136, 5-(3,3-dimethyl-but-1-ynyl)-3-[N′-dimethyl-N-(4-methyl-cyclohexanecarbonyl)-hydrazino]-thiophene-2-carboxylic acid] | 98.9
CC1CCC(C(=O)N(c2cc(C#CC(C)(C)C)sc2C(=O)O)N(C)C2CCC3(CC2)OCCO3)CC1 (centres unmarked) [Compound 122] | 99.7

Source: US8884030B2, “Inhibitors of Flaviviridae viruses” (priority 2010, dated 2014)
